From ChEMBL document CHEMBL5137071, “Convenient Diaryl Ureas as Promising Anti-pseudo-allergic Agents” (J Med Chem, 2022)
Activity calls are given as the source filed them. The calls are words filed in the database; no cut-off is given here.

Assays:
LAD2 [1] = test: Anti-pseudo allergic activity in human LAD2 cells assessed as inhibition of C48/80-induced beta-hexosaminidase release; format: functional, cell-based
LAD2 [2] = test: Cytotoxicity against human LAD2 cells assessed as reduction in cell viability at 10 uM incubated for 24 hrs by Cell Counting Kit assay; format: toxicity, cell-based; conditions: lad2, 24 h
LAD2 [3] = test: Anti-pseudo allergic activity in human LAD2 cells assessed as inhibition of C48/80-induced beta-hexosaminidase release at 0.1 to 10 uM pretreated for 30 mins followed by C48/80 addition measured after 30 mins; format: functional, cell-based; conditions: dose 0.1-10 µM, time 1.0 hrs
LAD2 [4] = test: Anti-pseudo allergic activity in human LAD2 cells assessed as inhibition of C48/80-induced histamine release at 0.1 to 10 uM pretreated for 30 mins followed by C48/80 addition measured after 30 mins by HPLC-MS analysis; format: functional, cell-based; conditions: dose 0.1-10 µM
Mus musculus [5] = test: Anti-pseudo allergic activity against C48/80-induced passive cutaneous anaphylaxis mouse model assessed as body temperature loss at 10 mg/kg followed by C48/80 administration intravenously after 30 mins post-compound administration measured every 5 mins for 30 mins; format: functional, organism-based; conditions: route iv, time 1.0 hrs
Mus musculus [6] = test: Anti-pseudo allergic activity against C48/80-induced passive cutaneous anaphylaxis mouse model assessed as increase in local tissue edema vascular permeability at 1 to 10 mg/kg followed by C48/80 administration after 30 mins post-compound administration measured every 5 mins for 30 mins; format: functional, organism-based; conditions: dose 1-10 mg/kg
Mus musculus [7] = test: Anti-pseudo allergic activity against passive cutaneous anaphylaxis-induced mouse model assessed as systemic symptoms at 1 to 10 mg/kg followed by C48/80 administration after 30 mins post-compound administration measured every 5 mins for 30 mins; format: functional, organism-based; conditions: dose 1-10 mg/kg
HEK293 [8] = test: Anti-pseudo allergic activity in HEK293 cells expressing H1R assessed as inhibition of histamine induced calcium release at 0 to 10 uM; format: functional, cell-based; conditions: Homo sapiens, dose 0-10 µM
HEK293 [9] = test: Anti-pseudo allergic activity in HEK293 cells assessed as prevention of calcium entry in presence of emodin at 0 to 10 uM; format: functional, cell-based; conditions: Homo sapiens, dose 0-10 µM
Mus musculus [10] = test: Anti-pseudo allergic activity against C48/80-induced passive cutaneous anaphylaxis C57 mouse model assessed as reduction in paw thickness rate at 0 to 1 mg/kg followed by C48/80 intravenously administration after 15 mins by Evans blue method; format: functional, organism-based; conditions: dose 0-1 mg/kg, route iv
Mus musculus [11] = test: Anti-pseudo allergic activity against passive cutaneous anaphylaxis-induced C57 mouse model assessed as reduction in C48/80-induced extravasation rate at 0 to 1 mg/kg followed by C48/80 intravenously administration after 15 mins by Evans blue method; format: functional, organism-based; conditions: dose 0-1 mg/kg, route iv
Mus musculus [12] = test: Anti-pseudo allergic activity against C48/80-induced passive cutaneous anaphylaxis mouse model assessed as reduction in serum histamine level at 1 to 10 mg/kg followed by C48/80 administration intravenously after 30 mins post-compound administration measured every 5 mins for 30 mins by LC/MS/MS analysis; format: functional, organism-based; conditions: dose 1-10 mg/kg, route iv
[13] = biological target: T1, Mas-related G-protein coupled receptor member X2 (Homo sapiens) (UniProt Q96LB1); test: Antagonist activity at MRGPRX2 (unknown origin) expressed in HEK293 cells assessed as inhibition of calcium mobilization at upto 10 uM; format: functional, cell-based; conditions: filed as antagonist
T1 sequence (whole entry): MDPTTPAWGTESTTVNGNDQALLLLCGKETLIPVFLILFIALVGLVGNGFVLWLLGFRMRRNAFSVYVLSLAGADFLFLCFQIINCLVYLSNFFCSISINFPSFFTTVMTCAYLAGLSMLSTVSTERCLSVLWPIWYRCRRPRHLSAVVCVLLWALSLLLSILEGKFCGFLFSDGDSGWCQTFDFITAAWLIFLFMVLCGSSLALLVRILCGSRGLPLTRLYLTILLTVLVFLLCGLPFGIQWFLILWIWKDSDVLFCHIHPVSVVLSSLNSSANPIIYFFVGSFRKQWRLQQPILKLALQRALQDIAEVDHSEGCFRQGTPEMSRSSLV

Mus musculus [14] = test: Anti-pseudo allergic activity against C48/80-induced passive cutaneous anaphylaxis mouse model assessed as decrease in degranulation level at 0 to 1 mg/kg followed by C48/80 addition measured after 45 mins by FITC-avidin staining based laser scanning confocal microscopy; format: functional, organism-based; conditions: dose 0-1 mg/kg
LAD2 [15] = test: Anti-pseudo allergic activity in human LAD2 cells assessed as decrease in C48/80-induced calcium intracellular mobilization at 10 uM by fluorescence based assay; format: functional, cell-based

SMILES	IC50 (LAD2 [1])	Activity [13]	Activity (LAD2 [2])	Activity (LAD2 [3])	inhibition (LAD2 [4])	Activity (Mus musculus [5])	Activity (Mus musculus [6])	Activity (Mus musculus [7])	Activity (HEK293 [8])	Activity (HEK293 [9])	Activity (Mus musculus [10])	Activity (Mus musculus [11])	Activity (Mus musculus [12])	Activity (Mus musculus [14])	Activity (LAD2 [15])
O=C(Nc1ccc(Br)cc1)Nc1ccc(C(F)(F)F)cc1Cl	2.51 µM	–	Non-Toxic	Active	Active	–	–	–	–	–	–	–	–	–	–
O=C(Nc1ccc(C(F)(F)F)cc1Cl)Nc1ccc(C(F)(F)F)cc1Cl	2.16 µM	–	Non-Toxic	Active	Active	–	–	–	–	–	–	–	–	–	–
O=C(Nc1cccc(C(F)(F)F)c1)Nc1cccc(C(F)(F)F)c1	1.59 µM	–	Non-Toxic	Active	Active	–	–	–	–	–	–	–	–	–	–
O=C(Nc1ccc(F)cc1)Nc1cc(Br)cc(C(F)(F)F)c1	–	–	Non-Toxic	–	–	–	–	–	–	–	–	–	–	–	–
O=C(Nc1ccc(F)cc1)Nc1ccc(C(F)(F)F)cc1	1.64 µM	–	Non-Toxic	Active	Active	–	–	–	–	–	–	–	–	–	–
O=C(Nc1ccc(F)cc1)Nc1ccc(F)cc1	–	–	Non-Toxic	–	–	–	–	–	–	–	–	–	–	–	–
O=C(Nc1ccc(Br)cc1)Nc1ccc(Br)cc1	–	–	Non-Toxic	–	–	–	–	–	–	–	–	–	–	–	–

Further molecules by falling IC50 (LAD2 [1]), results first:

IC50 (LAD2 [1])	Activity [13]	SMILES	Activity (LAD2 [2])	Activity (LAD2 [3])	inhibition (LAD2 [4])	Activity (Mus musculus [5])	Activity (Mus musculus [6])	Activity (Mus musculus [7])	Activity (HEK293 [8])	Activity (HEK293 [9])	Activity (Mus musculus [10])	Activity (Mus musculus [11])	Activity (Mus musculus [12])	Activity (Mus musculus [14])	Activity (LAD2 [15])
1.4 µM	–	O=C(Nc1ccc(F)cc1)Nc1ccc(C(F)(F)F)cc1Cl	Non-Toxic	Active	Active	–	–	–	–	–	–	–	–	–	–
1.1 µM	–	O=C(Nc1ccc(Cl)c(C(F)(F)F)c1)Nc1ccc(C(F)(F)F)cc1Cl	–	Active	Active	–	–	–	–	–	–	–	–	–	–
0.97 µM	Active	O=C(Nc1ccc(C(F)(F)F)cc1)Nc1ccc(C(F)(F)F)cc1	Non-Toxic	Active	Active	Active	Active	Active	Active	Active	Active	Active	Active	Active	Active
0.8 µM	–	O=C(Nc1ccc(C(F)(F)F)cc1)Nc1ccc(C(F)(F)F)cc1Cl	Non-Toxic	Active	Active	–	–	–	–	–	–	–	–	–	–
0.79 µM	Active	O=C(Nc1ccc(Cl)c(C(F)(F)F)c1)Nc1ccc(Cl)c(C(F)(F)F)c1	Non-Toxic	Active	Active	Active	Active	Active	Active	Active	Active	Active	Active	Active	Active
0.62 µM	Active	O=C(Nc1ccc(C(F)(F)F)cc1)Nc1cc(Br)cc(C(F)(F)F)c1	Non-Toxic	Active	Active	Active	Active	Active	Active	Active	Active	Active	Active	Active	Active
